According to patent US8071645B2, “Systems and methods for treating human inflammatory and proliferative diseases and wounds, with fatty acid metabolism inhibitors and/or glycolytic inhibitors” (The Regents of the University of Colorado, priority 2003, dated 2011):

What was measured:
[1] = test system: B16F1 melanoma cells; test: mitochondrial membrane potential (Mitotracker Red) of B16F1 melanoma cells; assay type: cell-based; conditions: 48 hours, FIG. 20
Method: Metabolic Activity Assay. Cells were prepared as previously described. The specific metabolic dye was added and mixed into the cell suspension. This plate was then placed into the 37° incubator for a 20-minute incubation. After incubation, the cells were centrifuged at 300×g for 5 minutes, and the supernatant was removed. The cells were then washed once with PBS/2.5% FBS and transferred into flow cytometric tubes containing 500 μL of PBS/2.5% FBS for analysis
MitoTracker Red CM-H2XROS (Molecular Probes). One vial of MitoTracker Red provides 10 tests and contains 50 μg. This is unstable and can't be stored. Therefore, when each vial was opened, 43 μL of Dimethysulfoxide (DMSO) were added. […]
Geometric Mean Fluorescence. […] Once the stained sample was plotted against the control (isotype or unstained), geometric mean fluorescence values were obtained for both histogram peaks. The stained control sample value was subtracted from sample to identify the actual fluorescence of the stained sample over that of the control.
B16F1 melanoma cells of Example 12 were untreated or treated with etomoxir at the indicated concentrations for 48 hours. Cells were harvested, stained with Mitotracker Red (Molecular Probes) as described in Materials and Methods, and analyzed by flow cytometry. The value of Mitotracker Red was then calculated as described in Materials and Methods. […]

[2] = test system: HL60 MDR cells; test: % death of HL60 MDR cells by flow cytometry; assay type: cell-based, human; conditions: HL60 MDR
Method: Dot plots as a function of live versus dead cells. The cells were cultured at a concentration of 0.5 to 1 million cells per ml. Cells were untreated or treated with etomoxir or 2-deoxy-D-glucose at a concentration of 2.5 mM at the indicated concentrations for either 24 or 48 hours. In additional experiments, under each of these culture conditions, the cells were cultured for 24 hours at which time point, polyclonal anti-UCP-2 was added at a 1:1000 dilution of stock provided by Alpha Diagnostics, San Antonio, Tex. Cells were harvested and analyzed by flow cytometry. Each dot on the dot plots of FIGS. 1, 3, 5, 7, 9, and 11 represents one cell. Five thousand cells were assessed for forward scatter (FS), as a function of cell size, versus side scatter (SS), as a function of cellular granularity. The upper ellipse represents live cells by these criterion and the lower ellipse in each dot plot represents the dead cells.
Statistical Analysis, Percents, and Geometric Mean Values Percents. Gating is a tool provided by Cell Quest software and allows for the analysis of a certain population of cells. Gating around both the live and dead cell populations gave a percent of the cell numbers that was in each population. After the gates were drawn, a percent value of dead cells was calculated by taking the number of dead cells divided by the number of total cells and multiplying by one hundred.
This example illustrates an embodiment of the invention, where multi-drug resistant cancer cells were exposed to compositions of the invention. Analysis of the cells was performed using flow cytometry. The flow cytometry experiments were performed as follows. The cells were harvested, counted, and resuspended as described above. For DNA staining, the cells were washed and resuspended in ice-cold PBS and fixed by the dropwise addition of 95% ethanol. The cells were then incubated for 30 minutes on ice, washed, and resuspended in PBS containing 1% formaldehyde and 0.01% Tween. The cells were incubated with 50 units of DNAse and washed with PBS containing 5% DNAse. The cells were then incubated with anti DNA Fab (166, kind gift of Dr. Susan Wallace, University of Vermont), then washed and stained with a fluorescein conjugated second step anti-mouse immunoglobulin. The cells were then washed and resuspended in PBS/3% BSA/1% formaldehyde. The cells were stained for intracellular H2O2 using 6-carboxy-2′,7′-dichlorodihydrofluorescein diacetate (DCF-DA, Molecular Probes, Eugene, Oreg.). The cells were incubated with 1 mM DCF-DA for 20 minutes, washed twice in PBS containing 5% fetal calf serum and analyzed using flow cytometry. The mitochondrial membrane potential was assessed using MitoTracker Red (CM-H2XROS, Molecular Probes, Eugene, Oreg.). The cells were resuspended in warm (37° C.) PBS containing a final concentration of 0.5 micromolar of dye. The cells were then incubated for 30 minutes, pelleted, and resuspended in prewarmed medium for analysis. The data was acquired on a Coulter Elite Epics or Excel flow cytometer (Coulter, Hialeah, Fla.) and analyzed with CellQuest software, (Becton Dickinson, San Jose, Calif.). […] Each sample population was classified for cell size (forward scatter) and complexity (side scatter), gated on a population of interest and evaluated using 40,000 cells. Each figure describing flow cytometric data represents one of at least four replicate experiments.
All cell lines in this example were cultured in RPMI 1640 culture medium. The medium was supplemented with 5% fetal bovine serum (“FBS”), 2 mM L-Glutamine, 500 units/mL pennicillin/500 micrograms/mL of streptomycin, 10 mM HEPES Buffer, 10^−5 M 2-mercaptoethanol (“2-ME”), 1 mM MEM Sodium Pyruvate, and 0.04 micrograms/mL of Gentamicin (All reagents from Gibco BRL). The cells were maintained at 37° C. in a humidified atmosphere under 5% CO2 in air using standard cell culture techniques known to those of ordinary skill in the art. […]

Structure (SMILES): CCOC(=O)C1(CCCCCCOc2ccc(Cl)cc2)CO1 (stereo not drawn) [etomoxir, 2-(6-(4-chlorophenoxy)-hexyl)-oxirane-2-carboxylic acid ethyl ester]
- mitochondrial membrane potential as measured by Mitotracker Red [1]: increase
- percent of cell deaths ([2]; 24 hours, 2-deoxy-D-glucose at 2.5 mM, etomoxir as in FIG. 27): 11%
- percent of cell deaths ([2]; 48 hours, concentrations as in FIG. 31): 14%
